Measurements taken from patent US7173027B2, “Receptor selective cannabimimetic aminoalkylindoles” (University of Connecticut, priority 2001, dated 2007).
Read-outs that look alike come from different tables or passages of the source.

Tests used:
CB1 receptor = target: T1, CB1 receptor (Rattus norvegicus, UniProt P20272); assay: CB1 receptor binding, rat forebrain membranes, [3H]CP-55,940 displacement
T1 construct: membranes were prepared from rat forebrain membranes; from tissue; host or cells: rat forebrain membranes
Protocol: (§1) The prepared cannabinoid compounds were tested for CB2 receptor binding affinity and for CB1 receptor affinity (to determine selectivity for the CB2 receptor). As used herein, “binding affinity” is represented by the IC50 value which is the concentration of an analog required to occupy the 50% of the total number (Bmax) of the receptors. The lower the IC50 value, the higher the binding affinity. […] The binding affinities (Ki) are expressed in nanomoles (nM).
For the CB1 receptor-binding studies, membranes were prepared from rat forebrain membranes according to the procedure of P. R. Dodd et al; A Rapid Method for Preparing Synaptosomes: Comparison with Alternative Procedures, Brain Res., 107–118 (1981). The binding of the novel analogues to the CB1 cannabinoid receptor was assessed as described in W. A. Devane et al; Determination and Characterization of a Cannabinoid Receptor in a Rat Brain, Mol. Pharmacol., 34, 605–613 (1988) and A. Charalambous et al; “5′-azido ^8−-THC: A Novel Photoaffinity Label for the Cannabinoid Receptor”, J. Med. Chem., 35, 3076–3079 (1992) with the following changes. The above articles are incorporated by reference herein.
Membranes, previously frozen at −80° C., were thawed on ice. To the stirred suspension was added three volumes of TME (25 mM Tris-HCl buffer, 5 mM MgCl2 and 1 mM EDTA) at a pH 7.4.The suspension was incubated at 4° C. for 30 min. At the end of the incubation, the membranes were pelleted and washed three times with TME.
(§2) The treated membranes were subsequently used in the binding assay described below. Approximately 30 μg of membranes were incubated in silanized 96-well microtiter plate with TME containing 0.1% essentially fatty acid-free bovine serum albumin (BSA), 0.8 nM [^3H] CP-55,940, and various concentrations of test materials at 30° C. for 1 hour. The samples were immediately filtered using a Packard Filtermate 196 and Whatman GF/C filterplates and washed with wash buffer (TME) containing 0.5% BSA. Radioactivity was detected using MicroScint 20 scintillation cocktail added directly to the dried filterplates, and the filterplates were counted using a Packard Instruments Top-Count. Nonspecific binding was assessed using 100 nM CP-55,940. Data collected from three independent experiments performed with duplicate determinations was normalized between 100% and 0% specific binding for [^3H] CP-55,940, determined using buffer and 100 nM CP-55,940.The normalized data was analyzed using a 4-parameter nonlinear logistic equation to yield IC50 values. Data from at least two independent experiments performed in duplicate was used to calculate IC50 values which were converted to Ki values using the using the assumptions of Cheng et al; “Relationship Between the Inhibition Constant (Ki) and the concentration of Inhibitor which causes 50% Inhibition (IC50) of an Enzymatic Reaction”, Biochem. Pharmacol., 22, 3099–3102, (1 973), which is incorporated by reference herein.

CB2 receptor = target: T2, CB2 receptor (Mus musculus, UniProt P47936); assay: CB2 receptor binding, mouse spleen membranes, [3H]CP-55,940 displacement; conditions: for Ki: mouse spleen membranes
T2 construct: membranes were prepared from frozen mouse spleen; from tissue; host or cells: frozen mouse spleen membranes
Protocol: as §1, §2
For the CB2 receptor binding studies, membranes were prepared from frozen mouse spleen essentially according to the procedure of P. R. Dodd et al; “A Rapid Method for Preparing Synaptosomes: Comparison with Alternative Procedures”, Brain Res., 226, 107–118 (1981) which is incorporated by reference herein. Silanized centrifuge tubes were used throughout to minimize receptor loss due to adsorption. The CB2 binding assay was conducted in the same manner as the CB1 binding assay. The binding affinities (Ki) were also expressed in nanomoles (nM).

human CB2 receptors = target: T3, human CB2 receptors (Homo sapiens, UniProt P34972); assay: Binding affinity to human CB2 receptors, human tissue samples
T3 construct: using the below described procedure with human tissue samples; from tissue

[1] = Table 2, 0.8 nM [3H]CP-55,940, read-out: Ki nM CB1
[2] = Ki nM CB1, Table 2, 0.8 nM [3H]CP-55,940
[3] = Table 2, human CB2, read-out: Ki nM CB2 (Human)
[4] = Table 1, 0.8 nM [3H]CP-55,940, read-out: Ki nM CB1

T1 sequence (P20272 whole entry): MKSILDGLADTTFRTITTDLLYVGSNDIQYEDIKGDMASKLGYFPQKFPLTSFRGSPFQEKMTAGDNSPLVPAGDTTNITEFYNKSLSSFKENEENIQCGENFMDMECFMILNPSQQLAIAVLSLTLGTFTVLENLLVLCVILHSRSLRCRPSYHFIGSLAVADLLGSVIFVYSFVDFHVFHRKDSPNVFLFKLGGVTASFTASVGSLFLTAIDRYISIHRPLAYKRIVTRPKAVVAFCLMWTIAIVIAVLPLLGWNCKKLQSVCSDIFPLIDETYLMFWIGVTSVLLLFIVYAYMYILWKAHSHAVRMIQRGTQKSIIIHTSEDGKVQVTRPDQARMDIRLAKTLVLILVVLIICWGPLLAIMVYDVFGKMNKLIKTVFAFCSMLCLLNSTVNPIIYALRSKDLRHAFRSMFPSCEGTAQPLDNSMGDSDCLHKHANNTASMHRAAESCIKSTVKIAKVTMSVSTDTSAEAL
T3 sequence (P34972 whole entry): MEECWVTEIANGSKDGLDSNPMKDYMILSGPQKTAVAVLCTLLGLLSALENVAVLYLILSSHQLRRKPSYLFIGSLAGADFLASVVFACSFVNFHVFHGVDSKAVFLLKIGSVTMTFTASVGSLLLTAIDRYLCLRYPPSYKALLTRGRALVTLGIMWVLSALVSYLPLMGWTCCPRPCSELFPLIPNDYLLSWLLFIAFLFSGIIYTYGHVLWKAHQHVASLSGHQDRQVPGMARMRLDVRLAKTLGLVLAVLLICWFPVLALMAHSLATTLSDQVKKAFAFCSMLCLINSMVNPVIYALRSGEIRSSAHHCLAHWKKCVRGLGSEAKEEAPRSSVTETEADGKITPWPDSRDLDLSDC
T2 sequence (P47936 whole entry): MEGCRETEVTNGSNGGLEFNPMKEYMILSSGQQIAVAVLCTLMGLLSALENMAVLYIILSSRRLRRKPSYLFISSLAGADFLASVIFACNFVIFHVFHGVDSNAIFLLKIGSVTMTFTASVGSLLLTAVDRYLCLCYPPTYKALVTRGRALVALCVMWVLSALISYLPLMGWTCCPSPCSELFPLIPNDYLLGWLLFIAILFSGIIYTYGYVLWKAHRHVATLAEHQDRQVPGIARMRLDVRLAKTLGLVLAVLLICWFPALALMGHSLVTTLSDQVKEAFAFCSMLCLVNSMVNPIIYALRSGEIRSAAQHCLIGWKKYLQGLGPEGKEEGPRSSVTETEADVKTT

Structure (SMILES): O=C(c1cc([N+](=O)[O-])ccc1I)c1cn(CC2COCCN2Cc2ccccc2)c2ccccc12 (stereo not drawn) [2-26]
- Ki (CB1 receptor; [1]): 4210 nM
- Ki (CB2 receptor; Table 2, read-out: Ki nM CB2): 1430 nM

Structure (SMILES): CN1CCOCC1Cn1cc(C(=O)c2ccccc2I)c2ccccc21 (stereo not drawn) [2-28]
- Ki (CB1 receptor; [1]): 27.9 nM
- Ki (CB2 receptor; Table 2, read-out: Ki nM CB2): 226 nM

Structure (SMILES): CN1CCCCC1Cn1cc(C(=O)c2ccnc3ccccc23)c2ccccc21 (stereo not drawn) [2-38]
- Ki (CB1 receptor; [1]): 719 nM
- Ki (CB2 receptor; Table 2, read-out: Ki nM CB2): 747 nM

Structure (SMILES): CN1CCCC[C@@H]1Cn1cc(C(=O)c2ccccc2I)c2ccccc21 [2-34(R)]
- Ki (CB1 receptor; [2]): 1.57 nM

Structure (SMILES): CN1CCCCC1Cn1cc(C(=O)c2cc([N+](=O)[O-])ccc2I)c2ccccc21 (racemic) [2-32(R,S)]
- Ki (CB1 receptor; [1]): 239 nM
- Ki (human CB2 receptors; [3]): 13.6 nM
- Ki (CB2 receptor; Table 2, read-out: Ki nM CB2): 3.41 nM

Structure (SMILES): CN1CCCCC1Cn1cc(C(=O)c2cc(C(N)=O)ccc2I)c2ccccc21 (stereo not drawn) [2-48]
- Ki (CB1 receptor; [1]): 390 nM
- Ki (CB2 receptor; Table 2, read-out: Ki nM CB2): 47.2 nM

Structure (SMILES): CN1CCCCC1Cn1cc(C(=O)c2cc(O)ccc2I)c2ccccc21 (stereo not drawn) [2-49]
- Ki (CB1 receptor; [1]): 29.1 nM
- Ki (CB2 receptor; Table 2, read-out: Ki nM CB2): 18.6 nM

Structure (SMILES): CN1CCCCC1Cn1cc(C(=O)c2cnc3ccccc3c2)c2ccccc21 (stereo not drawn) [2-36]
- Ki (CB1 receptor; [1]): 133 nM
- Ki (CB2 receptor; Table 2, read-out: Ki nM CB2): 8.53 nM

Structure (SMILES): CN1CCCCC1Cn1cc(C(=O)c2cccs2)c2ccccc21 (stereo not drawn) [2-39]
- Ki (CB1 receptor; [1]): 41.4 nM
- Ki (CB2 receptor; Table 2, read-out: Ki nM CB2): 19.5 nM

Structure (SMILES): CN1CCCC[C@@H]1Cn1cc(C(=O)c2ccccc2I)c2ccccc21 [2-24(R)]
- Ki (CB1 receptor; [4]): 1.8 nM

Structure (SMILES): CN1CCCC[C@@H]1Cn1cc(C(=O)c2cc([N+](=O)[O-])ccc2I)c2ccccc21 [2-7(R)]
- Ki (CB1 receptor; Ki nM CB1, Table 1, 0.8 nM [3H]CP-55,940): 285 nM
- Ki (CB2 receptor; Ki nM CB2, Table 1): 0.53 nM

Structure (SMILES): CN1CCCCC1Cn1cc(C(=O)c2cnccn2)c2ccccc21 (stereo not drawn) [2-37]
- Ki (CB1 receptor; [1]): 3540 nM
- Ki (CB2 receptor; Table 2, read-out: Ki nM CB2): 837 nM

Structure (SMILES): CN1CCOCC1Cn1cc(C(=O)c2cccc3ccccc23)c2ccccc21 (stereo not drawn) [2-31]
- Ki (CB1 receptor; [1]): 5.7 nM
- Ki (CB2 receptor; Table 2, read-out: Ki nM CB2): 26.6 nM

Structure (SMILES): CN1CCCCC1Cn1cc(C(=O)C23CC4CC(CC(C4)C2)C3)c2ccccc21 (stereo not drawn) [2-33, 1-(N-Methyl-2-piperidinyl)methyl-3-(1-adamantanecarbonyl)-1H-indole]
- Ki (CB1 receptor; [2]): 11.9 nM
- Ki (human CB2 receptors): 2.32 nM
- Ki (CB2 receptor; Ki nM CB2, Table 2): 4.8 nM

Structure (SMILES): O=C(c1ccccc1I)c1cn(CC2COCCN2Cc2ccccc2)c2ccccc12 (stereo not drawn) [2-25]
- Ki (CB1 receptor; [1]): 1220 nM
- Ki (CB2 receptor; Table 2, read-out: Ki nM CB2): 1800 nM

Structure (SMILES): CN1CCCCC1Cn1cc(C(=O)c2cc3ccccc3cn2)c2ccccc21 (stereo not drawn) [2-40]
- Ki (CB1 receptor; [1]): 28.6 nM
- Ki (CB2 receptor; Table 2, read-out: Ki nM CB2): 14.5 nM

Structure (SMILES): CN1CCOCC1Cn1cc(C(=O)c2cc([N+](=O)[O-])ccc2I)c2ccccc21 (stereo not drawn) [2-29]
- Ki (CB1 receptor; [1]): 848 nM
- Ki (CB2 receptor; Table 2, read-out: Ki nM CB2): 48.4 nM

Structure (SMILES): CN1CCCCC1Cn1cc(C(=O)c2cnc3ccccc3n2)c2ccccc21 (stereo not drawn) [2-41]
- Ki (CB1 receptor; [1]): 158 nM
- Ki (CB2 receptor; Table 2, read-out: Ki nM CB2): 160 nM

Structure (SMILES): CN1CCCCC1Cn1cc(C(=O)c2cc(C#N)ccc2I)c2ccccc21 (stereo not drawn) [2-45]
- Ki (CB1 receptor; [1]): 418 nM
- Ki (CB2 receptor; Table 2, read-out: Ki nM CB2): 15.8 nM

Structure (SMILES): CN1CCCC[C@H]1Cn1cc(C(=O)c2ccccc2I)c2ccccc21 [2-34(S)]
- Ki (CB1 receptor; [2]): 14.2 nM

Structure (SMILES): CN1CCCC[C@@H]1Cn1cc(C(=O)c2cc([N+](=O)[O-])ccc2I)c2ccccc21 [2-32(R)]
- Ki (CB1 receptor; [2]): 140 nM
- Ki (human CB2 receptors): 6.69 nM
- Ki (CB2 receptor; Ki nM CB2, Table 2): 1.42 nM

Structure (SMILES): CN1CCCCC1Cn1cc(C(=O)c2cncc3ccccc23)c2ccccc21 (stereo not drawn) [2-44]
- Ki (CB1 receptor; [1]): 16.9 nM
- Ki (CB2 receptor; Table 2, read-out: Ki nM CB2): 7.04 nM

Structure (SMILES): CN1CCOCC1Cn1cc(C(=O)c2cccc([N+](=O)[O-])c2I)c2ccccc21 (stereo not drawn) [2-30]
- Ki (CB1 receptor; [1]): 464 nM
- Ki (CB2 receptor; Table 2, read-out: Ki nM CB2): 154 nM

Structure (SMILES): CN1CCCCC1Cn1cc(C(=O)c2cc(C(=O)O)ccc2I)c2ccccc21 (stereo not drawn) [2-47]
- Ki (CB1 receptor; [1]): 240 nM
- Ki (CB2 receptor; Table 2, read-out: Ki nM CB2): 18.8 nM

Structure (SMILES): CN1CCCCC1Cn1cc(C(=O)c2ccc3ccccc3n2)c2ccccc21 (stereo not drawn) [2-35]
- Ki (CB1 receptor; [1]): 14.4 nM
- Ki (CB2 receptor; Table 2, read-out: Ki nM CB2): 20.9 nM

Structure (SMILES): CN1CCCCC1Cn1cc(C(=O)c2cc([N+](=O)[O-])ccc2I)c2ccccc21 (racemic) [2-7(R, S)]
- Ki (CB1 receptor; [4]): 403 nM
- Ki (human CB2 receptors; Table 1, human CB2, human tissue samples, read-out: Ki nM CB2 (human)): 1.6 nM
- binding affinity to human CB2 receptors (in words) (human CB2 receptors; human tissue samples): surprisingly potent cannabinoid
- selectivity for the CB2 receptor (in words) (CB2 receptor; CB2 versus CB1 binding): high selectivity for the CB2 receptor
- Ki (CB2 receptor; Table 1, read-out: Ki nM CB2): 5.7 nM

Structure (SMILES): CN1CCCCC1Cn1cc(C(=O)c2ccccc2I)c2ccccc21 (racemic) [2-34(R,S)]
- Ki (CB1 receptor; [1]): 2.89 nM
- Ki (human CB2 receptors; [3]): 2.49 nM

Structure (SMILES): CN1CCCCC1Cn1cc(C(=O)c2cccc[n+]2[O-])c2ccccc21 (stereo not drawn) [2-43]
- Ki (CB1 receptor; [1]): 8820 nM
- Ki (CB2 receptor; Table 2, read-out: Ki nM CB2): 1860 nM

Structure (SMILES): CN1CCCC[C@H]1Cn1cc(C(=O)c2ccccc2I)c2ccccc21 [2-24(S)]
- Ki (CB1 receptor; [4]): 561 nM

Structure (SMILES): O=C(c1cccc([N+](=O)[O-])c1I)c1cn(CC2COCCN2Cc2ccccc2)c2ccccc12 (stereo not drawn) [2-27]
- Ki (CB1 receptor; [1]): 2380 nM
- Ki (CB2 receptor; Table 2, read-out: Ki nM CB2): 928 nM

Structure (SMILES): CN1CCCCC1Cn1cc(C(=O)c2cc(C#N)ccc2I)c2ccccc21 (stereo not drawn) [2-46]
- Ki (CB1 receptor; [1]): 339 nM
- Ki (CB2 receptor; Table 2, read-out: Ki nM CB2): 15.4 nM

Structure (SMILES): CN1CCCCC1Cn1cc(C(=O)c2ccccn2)c2ccccc21 (stereo not drawn) [2-42]
- Ki (CB1 receptor; [1]): 421 nM
- Ki (CB2 receptor; Table 2, read-out: Ki nM CB2): 147 nM
